Columns and labels:
panel of 442 kinases [1] = molecular target: T1, panel of 442 kinases (Homo sapiens, UniProt P52564); format: binding; set-up: KINOMEscan: ABL1(F317L)-phosphorylated / KINOMEscan: ABL1(H396P)-nonphosphorylated / KINOMEscan: ABL1(H396P)-phosphorylated / KINOMEscan: ABL1(M351T)-phosphorylated / KINOMEscan: ABL1(T315I)-phosphorylated / KINOMEscan: ABL1-nonphosphorylated / KINOMEscan: ABL1-phosphorylated / KINOMEscan: ACVR2A / KINOMEscan: ACVR2B / KINOMEscan: ADCK3 / KINOMEscan: ADCK4 / KINOMEscan: AKT1 / KINOMEscan: AKT3 / KINOMEscan: ALK / KINOMEscan: ARK5 / KINOMEscan: AURKA / KINOMEscan: AURKC / KINOMEscan: BIKE / KINOMEscan: BMPR1A / KINOMEscan: BMPR1B / KINOMEscan: BMX / KINOMEscan: BRK / KINOMEscan: BRSK1 / KINOMEscan: BRSK2 / KINOMEscan: CAMK1 / KINOMEscan: CAMK1D / KINOMEscan: CAMK1G / KINOMEscan: CAMK2A / KINOMEscan: CAMK2B / KINOMEscan: AAK1 / KINOMEscan: CAMK2D / KINOMEscan: CAMK2G / KINOMEscan: ABL1(F317I)-nonphosphorylated / KINOMEscan: ABL1(F317I)-phosphorylated / KINOMEscan: ABL1(F317L)-nonphosphorylated: unit: % Ctrl; settings: Compound Concentration 10 µM
T1 construct: purchased KINOMEscan
T1 sequence (P52564 1-334): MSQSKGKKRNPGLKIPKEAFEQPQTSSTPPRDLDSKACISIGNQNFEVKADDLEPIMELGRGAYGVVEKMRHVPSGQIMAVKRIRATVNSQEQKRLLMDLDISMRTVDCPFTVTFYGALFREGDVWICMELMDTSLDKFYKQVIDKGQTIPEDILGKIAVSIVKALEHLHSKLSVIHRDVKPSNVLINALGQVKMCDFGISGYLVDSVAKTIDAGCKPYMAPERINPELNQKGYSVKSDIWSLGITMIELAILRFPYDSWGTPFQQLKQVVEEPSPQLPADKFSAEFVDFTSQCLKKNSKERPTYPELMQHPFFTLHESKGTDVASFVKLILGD
Excerpt: (§1) We assessed the selectivity of members of this scaffold using the KINOMEscan methodology across a near comprehensive panel of 442 kinases [[18,27]].

panel of 442 kinases [2] = molecular target: T2, panel of 442 kinases (Homo sapiens, UniProt O14965); format: binding; set-up: KINOMEscan: ABL1(F317L)-phosphorylated / KINOMEscan: ABL1(H396P)-nonphosphorylated / KINOMEscan: ABL1(H396P)-phosphorylated / KINOMEscan: ABL1(M351T)-phosphorylated / KINOMEscan: ABL1(T315I)-phosphorylated / KINOMEscan: ABL1-nonphosphorylated / KINOMEscan: ABL1-phosphorylated / KINOMEscan: ACVR2A / KINOMEscan: ACVR2B / KINOMEscan: ADCK3 / KINOMEscan: ADCK4 / KINOMEscan: AKT1 / KINOMEscan: AKT3 / KINOMEscan: ALK / KINOMEscan: ARK5 / KINOMEscan: AURKA / KINOMEscan: AURKC / KINOMEscan: BIKE / KINOMEscan: BMPR1A / KINOMEscan: BMPR1B / KINOMEscan: BMX / KINOMEscan: BRK / KINOMEscan: BRSK1 / KINOMEscan: BRSK2 / KINOMEscan: CAMK1 / KINOMEscan: CAMK1D / KINOMEscan: CAMK1G / KINOMEscan: CAMK2A / KINOMEscan: CAMK2B / KINOMEscan: AAK1 / KINOMEscan: CAMK2D / KINOMEscan: CAMK2G / KINOMEscan: ABL1(F317I)-nonphosphorylated / KINOMEscan: ABL1(F317I)-phosphorylated / KINOMEscan: ABL1(F317L)-nonphosphorylated: unit: % Ctrl; settings: Compound Concentration 10 µM
T2 construct: purchased KINOMEscan
T2 sequence (O14965 1-403): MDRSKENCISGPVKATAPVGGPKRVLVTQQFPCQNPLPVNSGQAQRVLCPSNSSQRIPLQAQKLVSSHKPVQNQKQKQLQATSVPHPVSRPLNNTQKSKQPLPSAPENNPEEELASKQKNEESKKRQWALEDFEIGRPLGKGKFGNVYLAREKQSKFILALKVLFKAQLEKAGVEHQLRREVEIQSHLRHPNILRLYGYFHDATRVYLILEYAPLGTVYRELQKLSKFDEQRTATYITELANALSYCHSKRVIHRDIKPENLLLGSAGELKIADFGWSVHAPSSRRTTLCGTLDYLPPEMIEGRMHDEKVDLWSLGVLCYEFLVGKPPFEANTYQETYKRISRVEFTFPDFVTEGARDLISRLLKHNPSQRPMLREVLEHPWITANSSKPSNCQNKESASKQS
Excerpt: as §1

Compound | KINOMEscan: MEK6 (panel of 442 kinases [1]) | KINOMEscan: AURKA (panel of 442 kinases [2])
COc1cc(C(=O)N2CCC(N3CCN(C)CC3)CC2)ccc1Nc1ncc2c(n1)N(C)c1ccccc1C(=O)N2C [15 (LRRK2-IN-1)] | 83 | 1.2
COc1cc(C(=O)N2CCC(N3CCN(C)CC3)CC2)ccc1Nc1ncc2c(n1)N1CCc3cccc(c31)C(=O)N2C [Compound 24] | 66 | 28
COc1cc(C(=O)N2CCC(N3CCN(C)CC3)CC2)ccc1Nc1ncc2c(n1)N(C1CCCC1)c1ccccc1C(=O)N2C [Compound 25, 11-cyclopentyl-2-((2-methoxy-4-(4-(4-methylpiperazin-1-yl)piperidine-1-carbonyl)phenyl)amino)-5-methyl-5H-benzo[e]pyrimido[5,4-b][1,4]diazepin-6(11H)-one] | 61 | 28
CCOc1cc(C(=O)N2CCC(N3CCN(C)CC3)CC2)ccc1Nc1ncc2c(n1)N(C1CCCC1)c1ccccc1C(=O)N2C [Compound 26] | 84 | 100
